Laboratory results taken from the supplement of paper PMC10307832.

How the values were obtained:
Test in all cases: relative viability (nuclei count vs DMSO), 5 days (fraction); higher = more cells survive
[1] = compound: Cc1ccccc1C(C(=O)NC1CCCCC1)N(C(=O)Cn1ccnc1C)c1cccc(F)c1 [IDH-C35] + Cc1nc(Nc2ncc(C(=O)Nc3c(C)cccc3Cl)s2)cc(N2CCN(CCO)CC2)n1 [Dasatinib] (partner 0.075 µM)
Outline: (§1)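 Lung cancer cell lines were seeded in 1536-well plates and dosed by pin tool the next day, with either a single drug or a fixed anchor-drug dose combined with five library-drug doses (not always all listed) spaced in √10 steps. Five days later, one step fixed the cells and stained their nuclei (final 0.05% Triton X-100, 1% formaldehyde, 1 ug/ml Hoechst), and nuclei were counted on 4× images. Relative viability is the nuclei count in treated wells divided by the count in vehicle wells, and each value is the median of duplicate plates.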

[2] = compound: Cc1ccccc1C(C(=O)NC1CCCCC1)N(C(=O)Cn1ccnc1C)c1cccc(F)c1 [IDH-C35] + CC1(C)CCC(c2ccc(Cl)cc2)=C(CN2CCN(c3ccc(C(=O)NS(=O)(=O)c4ccc(N[C@H](CCN5CCOCC5)CSc5ccccc5)c(S(=O)(=O)C(F)(F)F)c4)cc3)CC2)C1 [Navitoclax] (partner 0.5 µM)
Outline: as §1

[3] = compound: CC1=C(C(=NN1)C)CC2=C(C3=C(S2)N(C(=O)N(C3=O)C)CC(C)C)C(=O)N4C[C@@H](CO4)O + CC(=O)c1c(C)c2cnc(Nc3ccc(N4CCNCC4)cn3)nc2n(C2CCCC2)c1=O [Palbociclib] (partner 0.5 µM)
Outline: as §1

[4] = compound: Cc1ccccc1C(C(=O)NC1CCCCC1)N(C(=O)Cn1ccnc1C)c1cccc(F)c1 [IDH-C35] + CS(=O)(=O)N1CCN(Cc2cc3nc(-c4cccc5[nH]ncc45)nc(N4CCOCC4)c3s2)CC1 [Pictilisib] (partner 1 µM)
Outline: as §1

Cell Line: UMC-11
- relative viability ([1]; first compound 0.08 µM): 0.416
- relative viability ([1]; first compound 0.253 µM): 0.472
- relative viability ([1]; first compound 0.8 µM): 0.474
- relative viability ([1]; first compound 2.53 µM): 0.532
- relative viability ([1]; first compound 8 µM): 0.443
- relative viability ([2]; first compound 0.08 µM): 0.298
- relative viability ([2]; first compound 0.253 µM): 0.347
- relative viability ([2]; first compound 0.8 µM): 0.323
- relative viability ([2]; first compound 2.53 µM): 0.32
- relative viability ([2]; first compound 8 µM): 0.344
- relative viability ([3]; first compound 0.0025 µM): 0.333
- relative viability ([3]; first compound 0.007906 µM): 0.31
- relative viability ([3]; first compound 0.025 µM): 0.296
- relative viability ([3]; first compound 0.07906 µM): 0.29
- relative viability ([3]; first compound 0.25 µM): 0.339
- relative viability ([4]; first compound 0.08 µM): 0.874
- relative viability ([4]; first compound 0.253 µM): 0.794
- relative viability ([4]; first compound 0.8 µM): 0.759
- relative viability ([4]; first compound 2.53 µM): 0.79
- relative viability ([4]; first compound 8 µM): 0.889
